Assay results as given in paper PMC6467574 (Journal of controlled release : official journal of the …, 2018).
Where two headings read alike, the source gives them in different places.

How the values were obtained:
[1] = Supersaturation-precipitation; format: physicochemical; details: for Duration intended degree of drug supersaturation was maintained / Time to drug precipitation: base buffer, preliminary experiments, SSR 5 (CVDL) / 6 (PXM)
[2] = Equilibrium solubility determination in test media; format: physicochemical; details: 37 °C; for Equilibrium solubility, effect of addition of mucin: 0.1, 0.2, 0.4 %w/v mucin in 10 mM phosphate buffer pH 6.50 relative to buffer; for Equilibrium solubility, effect of addition of 8 %w/v PIM: 8 %w/v native pig intestinal mucus in 10 mM phosphate buffer pH 6.50 relative to buffer
Caco-2 monolayers = details: human, 100 min
[3] = tested on: Caco-2:HT29-MTX-E12 co-culture monolayers; details: human, 100 min
[4] = 1 SSR (multiple of equilibrium solubility)
[5] = 5 SSR (multiple of equilibrium solubility)

SMILES	Time drug remained supersaturated ([1]; SSR = 5, 8 %w/v native PIM, ISE) [h]	Time to precipitation (Tss), effect of increasing mucin concentration ([1]; SSR = 5, ISE, up to 0.2 %w/v mucin)	Time within which supersaturated drug precipitated (ISE) ([1]; SSR = 5, absence of mucus, ISE, average ± SEM, n=3) [min]	Time after which drug precipitated (HPLC) ([1]; SSR = 5, buffer solution, HPLC analysis) [min]	SSR maintained throughout the monitoring period ([1]; SSR = 5 induced, 0.4 %w/v mucin, ISE, 24 h)	SSR maintained throughout the monitoring period ([1]; SSR = 5 induced, 8 %w/v PIM, ISE, 24 h)	Duration intended degree of drug supersaturation was maintained [1]	Time to drug precipitation [1] [h]	Equilibrium solubility, effect of addition of mucin [2]	Equilibrium solubility, effect of addition of 8 %w/v PIM [2]	TEER relative to starting value (Caco-2 monolayers; [4]) [% starting value]	TEER relative to starting value (Caco-2 monolayers; [5])	TEER relative to starting value [3, 4] [% starting value]	TEER relative to starting value [3, 5]	Time after which drug started to precipitate ([1]; SSR = 6, buffer alone, HPLC) [h]	SSR reached at 24 h ([1]; SSR = 6 induced, buffer alone, HPLC)	SSR maintained throughout the monitoring period ([1]; SSR = 6 induced, presence of mucin (regardless of concentration) and PIM, HPLC)
COc1ccccc1OCCNCC(O)COc1cccc2[nH]c3ccccc3c12 (stereo not drawn) [CVDL, Carvedilol]	24	significantly increased	19 ± 4	> 10	> 3	> 3	at least 5 min	≤ 1	did not change	significantly increased	> 80	~ 60 % starting value	> 80	~ 60 % starting value	–	–	–
CN1C(C(=O)Nc2ccccn2)=C(O)c2ccccc2S1(=O)=O [PXM, piroxicam]	–	–	–	–	–	–	at least 5 min	≤ 5	appeared to increase	significantly increased	–	–	–	–	> 5	~ 4	6
